Measured values from patent US20230141603A1, “BENZODIAZEPINE DERIVATIVES AS GABA A GAMMA1 PAM” (Hoffmann-La Roche Inc., priority 2021, published 2023).

Target: T1, h-GABAA α2β2γ1 (Homo sapiens, UniProt P47869+Q8N1C3)
T1 sequence (P47869 29-451): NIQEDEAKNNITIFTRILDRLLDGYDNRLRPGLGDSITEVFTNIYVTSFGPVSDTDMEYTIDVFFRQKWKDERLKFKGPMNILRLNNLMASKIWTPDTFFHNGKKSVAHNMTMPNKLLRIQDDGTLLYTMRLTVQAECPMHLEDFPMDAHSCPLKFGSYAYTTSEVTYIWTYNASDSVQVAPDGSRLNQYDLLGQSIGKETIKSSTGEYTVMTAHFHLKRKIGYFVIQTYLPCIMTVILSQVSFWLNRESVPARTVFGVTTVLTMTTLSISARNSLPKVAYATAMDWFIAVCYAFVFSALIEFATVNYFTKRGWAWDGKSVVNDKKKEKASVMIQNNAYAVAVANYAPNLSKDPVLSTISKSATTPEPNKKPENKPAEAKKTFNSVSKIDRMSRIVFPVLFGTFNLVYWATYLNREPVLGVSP
T1 sequence (P47870 25-512 partner limits assumed): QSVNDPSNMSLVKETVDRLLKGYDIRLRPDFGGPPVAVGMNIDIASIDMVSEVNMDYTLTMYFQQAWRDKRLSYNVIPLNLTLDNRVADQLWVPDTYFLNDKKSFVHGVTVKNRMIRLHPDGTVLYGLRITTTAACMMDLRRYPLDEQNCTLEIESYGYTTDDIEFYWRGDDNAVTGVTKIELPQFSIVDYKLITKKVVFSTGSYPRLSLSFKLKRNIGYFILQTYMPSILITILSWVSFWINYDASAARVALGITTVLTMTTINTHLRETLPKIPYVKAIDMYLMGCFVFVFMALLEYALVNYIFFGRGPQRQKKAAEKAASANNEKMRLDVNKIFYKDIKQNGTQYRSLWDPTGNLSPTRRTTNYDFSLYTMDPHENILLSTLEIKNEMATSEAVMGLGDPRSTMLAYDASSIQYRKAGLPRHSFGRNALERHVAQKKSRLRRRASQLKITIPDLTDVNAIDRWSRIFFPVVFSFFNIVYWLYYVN
T1 sequence (Q8N1C3 36-465): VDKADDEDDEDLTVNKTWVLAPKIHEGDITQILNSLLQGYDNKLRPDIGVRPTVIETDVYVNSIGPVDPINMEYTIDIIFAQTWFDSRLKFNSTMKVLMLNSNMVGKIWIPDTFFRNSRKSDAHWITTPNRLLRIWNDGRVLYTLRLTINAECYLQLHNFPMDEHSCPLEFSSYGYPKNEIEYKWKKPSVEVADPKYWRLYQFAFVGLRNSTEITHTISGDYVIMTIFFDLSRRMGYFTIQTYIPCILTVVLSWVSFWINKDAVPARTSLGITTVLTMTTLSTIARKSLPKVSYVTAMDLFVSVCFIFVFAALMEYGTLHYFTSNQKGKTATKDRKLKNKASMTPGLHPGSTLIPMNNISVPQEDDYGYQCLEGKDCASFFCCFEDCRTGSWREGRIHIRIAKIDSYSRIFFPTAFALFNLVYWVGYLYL
Experiment: Two-electrode voltage clamp electrophysiology in Xenopus oocytes, modulation of GABA EC20 current
Type: cell-based
Parameters: host or cells: Xenopus laevis oocytes, RNA micro-injection
Details: for Efficacy (GABA)% / Fold increase h-GABA-A α2β2γ1 oocyte @ 30-fold Ki: Table 2; for Efficacy (GABA)%: % modulation of GABA EC20 = 100*(Fold increase−1), compound at approx. 30-fold Ki; for Fold increase h-GABA-A α2β2γ1 oocyte @ 30-fold Ki: compound at approx. 30-fold its Ki α2β2γ1, GABA EC20, Xenopus oocytes
Method in brief: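 Oocytes injected with receptor subunit mRNA were recorded 3–5 days later by two-electrode voltage clamp at −80 mV, room temperature, pH 7.4. Compound was applied during a second GABA EC20 pulse, with at least 3 oocytes per concentration. Efficacy is the ratio-trace extremum, expressed as % modulation of GABA EC20.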

| SMILES | Efficacy (GABA)% [%] | Fold increase h-GABA-A α2β2γ1 oocyte @ 30-fold Ki | potentiation of the GABA-induced current (α2β2γ1 GABAA receptor subtype expressing oocytes, reference PAMs) [%] |
| --- | --- | --- | --- |
| COc1ccc2c(c1Cl)C(c1c(F)cccc1F)=NCc1nnc(C3CC3)n1-2 [Example 79, 7-chloro-1-cyclopropyl-6-(2,6-difluorophenyl)-8-methoxy-4H-[1,2,4]triazolo[4,3-a][1,4]benzodiazepine] | 79 | 1.79 | – |
| COc1nnc2n1-c1ccc(Cl)c(Cl)c1C(c1c(F)cccc1F)=NC2 [Example 90, 7,8-dichloro-6-(2,6-difluorophenyl)-1-methoxy-4H-[1,2,4]triazolo[4,3-a][1,4]benzodiazepine] | 65 | 1.65 | – |
| CO[C@H]1C[C@H](c2nnc3n2-c2ccc(Cl)c(Cl)c2C(c2c(F)cccc2F)=NC3)C1 [Example 91, trans-7,8-dichloro-6-(2,6-difluorophenyl)-1-(3-methoxycyclobutyl)-4H-[1,2,4]triazolo[4,3-a][1,4]benzodiazepine] | 58 | 1.58 | – |
| Fc1cccc(F)c1C1=NCc2nnc(-c3cccnn3)n2-c2ccc(Br)c(Cl)c21 [Example 104, 8-bromo-7-chloro-6-(2,6-difluorophenyl)-1-pyridazin-3-yl-4H-[1,2,4]triazolo[4,3-a][1,4]benzodiazepine] | 94 | 1.94 | – |
| Cc1ncc2n1-c1ccc(Cl)cc1C(c1ccccc1F)=NC2 [Midazolam, reference compound] | – | – | ~60 |
